# Assay results published in ChEMBL document CHEMBL4414655, “Position Effect of Fatty Acid Modification on the Cytotoxicity and Antimetastasis Potential of the Cytotoxic Peptide Lycosin-I” (J Med Chem, 2019).
# Activity calls are given as the source filed them. The rule behind the calls is not given here. Residues, ends and D or L forms follow the SMILES beside them. *: point of attachment. Lauroyl = CCCCCCCCCCCC(=O)*
# Columns and labels:
# [1] = test system: A549; assay: Induction of cell membrane disruption in human A549 cells at 4 uM incubated for 24 hrs by scanning electron microscopy; type: cell-based
# [2] = Stability in mouse serum at 100 uM incubated for 24 hrs at 37 degC by MALDI-TOF MS analysis; type: ADME, cell-free
# [3] = test system: A549; assay: Anti-migration activity in human A549 cells 3D tumor spheroids assessed as reduction in cell migration at 2.5 to 10 uM incubated for 48 hrs by gelatin based 3D spheroid based metastasis assay; type: functional
# [4] = test system: A549; assay: Potency index, ratio of IC50 for lycosin-I to IC50 for test compound for cytotoxicity in human A549 cells assessed as reduction in cell viability at 0.78 to 50 uM incubated for 24 hrs by CCK8 assay; type: functional
# [5] = test system: B16-F10; assay: Antitumor activity in mouse B16/F10 cells implanted in BALB/C mouse assessed as inhibition of tumor growth at 10 mg/kg, ip dosed every other day for 10 days and measured every 2 days; type: functional, organism-based
# [6] = test system: A549; assay: Induction of apoptosis in human A549 cells assessed as induction of caspase-3 activation at 2 uM incubated for 24 hrs using Ac-DEVD-pNA substrate; type: functional, cell-based
# [7] = test system: A549; assay: Induction of apoptosis in human A549 cells assessed as necrotic cells level at 2 uM incubated for 24 hrs by Annexin-V-FITC/PI staining based analysis (reference value: 2.27%); type: functional
# [8] = test system: A549; assay: Induction of cell membrane disruption in human A549 cells assessed as LDH release at 3.25 uM incubated for 30 mins by fluorescence based assay relative to control
# [9] = test system: A549; assay: Inhibition of spheroids growth in human A549 cells 3D tumor spheroids assessed as induction of physical shrinking and peripheral collapse at 10 uM treated on day 0 and measured on day 5; type: functional, cell-based
# [10] = test system: A549; assay: Induction of apoptosis in human A549 cells assessed as early apoptotic cells level at 2 uM incubated for 24 hrs by Annexin-V-FITC/PI staining based analysis (reference value: 2.27%); type: functional
# [11] = species on record: Homo sapiens; assay: Induction of cell membrane disruption in human erythrocytes cells assessed as induction of hemolysis at 0.098 to 50 uM incubated for 1 hr by fluorescence based assay relative to control; type: cell membranes
# [12] = test system: A549; assay: Cytotoxicity in human A549 cells assessed as reduction in cell viability at 1 uM incubated for 24 hrs by CCK8 assay; type: functional, cell-based
# [13] = test system: L02; assay: Cytotoxicity in human L02 cells assessed as reduction in cell viability incubated for 24 hrs by CCK8 assay; type: cell-based; details: L02, 24 h
# [14] = test system: A549; assay: Cytotoxicity in human A549 cells 3D tumor spheroids assessed as reduction in cell viability at 5 to 10 uM treated on day 0 and measured on day 5 by CCK8 assay; type: functional, cell-based
# [15] = test system: A549; assay: Cytotoxicity in human A549 cells assessed as reduction in cell viability incubated for 24 hrs by CCK8 assay; type: functional, cell-based; details: A549, 24 h
# [16] = test system: B16-F10; assay: Anti-metastasis activity in mouse B16/F10 cells implanted in BALB/C mouse assessed as inhibition of lung metastatic nodules at 8 mg/kg, ip dosed every other day for 10 days and measured every 2 days by H and E staining based assay; type: functional, organism-based
# [17] = test system: A549; assay: Induction of cell membrane disruption in human A549 cells assessed as LDH release at 3.1 uM incubated for 30 mins by fluorescence based assay relative to control
# [18] = test system: B16-F10; assay: Anti-metastasis activity in mouse B16/F10 cells implanted in BALB/C mouse assessed as reduction in lung metastatic nodules at 8 mg/kg, ip dosed every other day for 10 days and measured every 2 days by H and E staining based assay; type: functional, organism-based
# [19] = test system: A549; assay: Inhibition of colony formation n human A549 cells incubated for 15 days by crystal violet staining based assay; type: functional, cell-based
# [20] = Toxicity in mouse B16/F10 cells implanted BALB/C mouse assessed as effect on body weight at 8 mg/kg, ip dosed every other day for 10 days and measured every 5 days; type: organism-based; details: in vivo
# [21] = test system: SW-620; assay: Cytotoxicity in human SW620 cells assessed as reduction in cell viability incubated for 24 hrs by CCK8 assay; type: functional, cell-based; details: SW-620, 24 h
# [22] = test system: A549; assay: Cytotoxicity in human A549 cells assessed as reduction in cell viability at 1.56 to 12.5 uM at 4 degC incubated for 24 hrs by CCK8 assay; type: functional, cell-based
# [23] = Toxicity in mouse B16/F10 cells implanted BALB/C mouse assessed as effect on body weight at 10 mg/kg, ip dosed every other day for 10 days and measured every 5 days; type: organism-based; details: in vivo
# [24] = test system: A549; assay: Inhibition of spheroids growth in human A549 cells 3D tumor spheroids at 5 uM treated on day 0 and measured on day 5 by CCK8 assay; type: functional, cell-based
# [25] = test system: MCF7; assay: Cytotoxicity in human MCF7 cells assessed as reduction in cell viability incubated for 24 hrs by CCK8 assay; type: functional, cell-based; details: MCF7, 24 h
# [26] = test system: PC-3; assay: Cytotoxicity in human PC3 cells assessed as reduction in cell viability incubated for 24 hrs by CCK8 assay; type: functional, cell-based; details: PC-3, 24 h
# [27] = test system: HeLa; assay: Cytotoxicity in human HeLa cells assessed as reduction in cell viability incubated for 24 hrs by CCK8 assay; type: functional, cell-based
# [28] = test system: B16-F10; assay: Cytotoxicity in mouse B16/F10 cells assessed as reduction in cell viability incubated for 24 hrs by CCK8 assay; type: functional, cell-based; details: B16-F10, 24 h
# [29] = test system: A549; assay: Cytotoxicity in human A549 cells assessed as reduction in cell viability at 0.39 to 25 uM pre-incubated in presence of 10% FBS for 48 hrs and measured after 24 hrs by CCK8 assay; type: functional, cell-based
# [30] = test system: A549; assay: Induction of cell membrane disruption in human A549 cells assessed as shrunken morphology with membrane lysis at 4 uM incubated for 24 hrs by scanning electron microscopy; type: cell-based
# [31] = test system: U-87 MG; assay: Cytotoxicity in human U87 cells assessed as reduction in cell viability incubated for 24 hrs by CCK8 assay; type: functional, cell-based, U-87MG ATCC
# [32] = test system: A549; assay: Anti-invasion activity in human A549 cells at 0.5 to 1 uM incubated for 12 hrs by crystal violet staining based Matrigel coated transwell invasion assay; type: functional, cell-based
# [33] = test system: A549; assay: Induction of apoptosis in human A549 cells assessed as late apoptotic cells level at 2 uM incubated for 24 hrs by Annexin-V-FITC/PI staining based analysis (reference value: 2.27%); type: functional
# [34] = test system: HEK-293T; assay: Cytotoxicity in human HEK293T cells assessed as reduction in cell viability incubated for 24 hrs by CCK8 assay; type: cell-based; details: Homo sapiens, HEK-293T
# [35] = test system: A549; assay: Cytotoxicity in human A549 cells assessed as reduction in cell viability by trypan blue staining method; type: functional, cell-based
# [36] = test system: A549; assay: Anti-migration activity in human A549 cells incubated for 12 hrs by crystal violet staining based transwell migration assay; type: functional, cell-based
# [37] = test system: A549; assay: Induction of cell membrane disruption in human A549 cells at 4 uM incubated for 1 hr by AO/EB staining based fluorescence microscopy
# [38] = test system: A549; assay: Cytotoxicity in human A549 cells assessed as reduction in cell viability at 1.56 to 12.5 uM at 37 degC incubated for 24 hrs by CCK8 assay; type: functional, cell-based
# [39] = test system: A549; assay: Inhibition of spheroids growth in human A549 cells 3D tumor spheroids at 10 to 20 uM treated on day 0 and measured on day 5 by CCK8 assay; type: functional, cell-based
# [40] = test system: A549; assay: Anti-migration activity in human A549 cells at 0.5 to 1 uM incubated for 12 hrs by crystal violet staining based transwell migration assay; type: functional, cell-based
# [41] = test system: A549; assay: Anti-migration activity in human A549 cells 3D tumor spheroids assessed as reduction in cell migration at 20 uM incubated for 48 hrs by gelatin based 3D spheroid based metastasis assay; type: functional
# [42] = test system: A549; assay: Induction of cell membrane disruption in human A549 cells assessed as LDH release at 25 uM incubated for 30 mins by fluorescence based assay relative to control
# [43] = test system: A549; assay: Inhibition of colony formation n human A549 cells up to 10 uM incubated for 15 days by crystal violet staining based assay; type: functional, cell-based
Molecule,Activity [1],Stability [2],TGI [5],Activity [7] [%],Activity [8] [%],Activity [10] [%],IC50 [13] [µM],IC50 [15] [µM],inhibition [16],IC50 [21] [µM],Activity [23],IC50 [25] [µM],IC50 [26] [µM],IC50 [27] [µM],Activity [29],IC50 [31] [µM],Activity [32],Activity [33] [%],IC50 [34] [µM],Activity [37],other results
CCCCCCCCCCCC(=O)N[C@@H](CCCCN)C(=O)NCC(=O)N[C@@H](Cc1c[nH]c2ccccc12)C(=O)N[C@@H](Cc1ccccc1)C(=O)N[C@@H](CCCCN)C(=O)N[C@@H](C)C(=O)N[C@@H](CCSC)C(=O)N[C@@H](CCCCN)C(=O)N[C@@H](CO)C(=O)N[C@H](C(=O)N[C@@H](C)C(=O)N[C@@H](CCCCN)C(=O)N[C@@H](Cc1ccccc1)C(=O)N[C@H](C(=O)N[C@@H](C)C(=O)N[C@@H](CCCCN)C(=O)N[C@@H](CCC(=O)O)C(=O)N[C@@H](CCCCN)C(=O)N[C@@H](CC(C)C)C(=O)N[C@@H](CCCCN)C(=O)N[C@@H](CCC(=O)O)C(=O)N[C@@H](Cc1cnc[nH]1)C(=O)N[C@@H](CC(C)C)C(=O)O)[C@@H](C)CC)[C@@H](C)CC (Lauroyl-KGWFKAMKSIAKFIAKEKLKEHL-OH),Active,Stable,Active,31.84,59.4,0.91,3.9,2.2 to 2.6,Active,2,Non-Toxic,1.7,2.2,2.8,Active,1.9,Dose-dependent effect,10.88,2.2,Active,Activity [3]: Active; Ratio IC50 [4]: 4 - 15; Activity [6]: Active; growth inhibition (GI) [9]: Active; Activity [11]: Active; Activity [12]: inactive; growth inhibition (GI) [14]: Active; Activity [17]: 55%; inhibition [18]: Active; inhibition [19]: Dose-dependent effect; Activity [20]: Non-Toxic; Activity [22]: inactive; growth inhibition (GI) [24]: Active; IC50 [28]: 2000 nM; Activity [30]: Active; Activity [35]: Active; Activity [36]: Dose-dependent effect; Activity [38]: Active
H-KGWFKAMKSIAKFIAKEKLKEHL-OH,inactive,Unstable,inactive,1.97,5.1,0.48,42.1,22.9,inactive,13.7,Non-Toxic,20.1,11,26.3,inactive,19.9,inactive,3.37,27.9,inactive,growth inhibition (GI) [39]: inactive; Activity [40]: inactive; Activity [41]: Active; Activity [42]: 37%; inhibition [43]: inactive
